From PubChem BioAssay (NCI)
Where “and” joins values, the source holds several entries; their conditions need not be identical. Equal entries are not always repeated.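 Cells were grown in 96-well plates and exposed to each compound for 48 hours at five concentrations; endpoints were interpolated linearly between bracketing concentrations, or set to the highest concentration if not reached. Abbreviation: GI50, concentration required for 50% inhibition of growth. TGI denotes the concentration required for complete inhibition of growth.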

Columns and labels:
Test in all cases: DTP human tumour cell line panel, 48 h
HOP-62 NSCLC = test system: HOP-62 NSCLC
KM12 colon = test system: KM12 colon
SK-MEL-2 melanoma = test system: SK-MEL-2 melanoma
LOX IMVI melanoma = test system: LOX IMVI melanoma
ACHN renal = test system: ACHN renal
A498 renal = test system: A498 renal
PC-3 prostate = test system: PC-3 prostate
SF-295 CNS = test system: SF-295 CNS
COLO 205 colon = test system: COLO 205 colon
HCT-116 colon = test system: HCT-116 colon

| SMILES | GI50 (HOP-62 NSCLC) | TGI (HOP-62 NSCLC) | GI50 (KM12 colon) | TGI (KM12 colon) | GI50 (SK-MEL-2 melanoma) | TGI (SK-MEL-2 melanoma) | GI50 (LOX IMVI melanoma) | TGI (LOX IMVI melanoma) | GI50 (ACHN renal) | TGI (ACHN renal) | GI50 (A498 renal) | TGI (A498 renal) | GI50 (PC-3 prostate) | TGI (PC-3 prostate) | GI50 (SF-295 CNS) | TGI (SF-295 CNS) | GI50 (COLO 205 colon) | TGI (COLO 205 colon) | GI50 (HCT-116 colon) | TGI (HCT-116 colon) |
| --- | --- | --- | --- | --- | --- | --- | --- | --- | --- | --- | --- | --- | --- | --- | --- | --- | --- | --- | --- | --- |
| O=C(Nc1ccc(I)cc1F)c1cc(Cl)ccc1O | 2.21 µM | 8 µM | 2.31 µM | 6.01 µM | 0.358 µM | 1.99 µM | 424 nM | 2.18 µM | 0.487 µM | 10.6 µM | 176 nM | 0.585 µM | 1.91 µM | 6.5 µM | 1.75 µM | 3.49 µM | 3450 nM | 11.2 µM | 403 nM | 1.95 µM |
| O=S(=O)(NCCNc1nccc(-c2c(-c3ccc(F)cc3)nc3sccn23)n1)c1ccccc1 | 26.4 µM | > 100 µM | 4.12 µM | 68.3 µM | 7.5 µM | 26.6 µM | 3410 nM | 93.1 µM | 1.69 µM | > 100 µM | 5230 nM | > 100 µM | 4 µM | 78.8 µM | 7.64 µM | 34.2 µM | 2230 nM | > 100 µM | 2360 nM | 14.9 µM |
| COc1ccc(OC)c(Nc2nc(-c3c(C)nc4sccn34)cs2)c1 | 8.46 µM | 63.4 µM | > 100 µM | > 100 µM | > 100 µM | > 100 µM | > 100000 nM | > 100 µM | 38.6 µM | > 100 µM | 1630 nM | > 100 µM | 18.1 µM | > 100 µM | 41.4 µM | > 100 µM | > 100000 nM | > 100 µM | > 100000 nM | > 100 µM |
| O=C1OC(c2ccccc2)=N/C1=C\c1cccc(F)c1 |  | 92.6 µM |  | > 100 µM |  | > 100 µM |  | 45.6 µM |  | > 100 µM |  | > 100 µM |  | > 100 µM |  | > 100 µM |  | > 100 µM |  | > 100 µM |
| COc1cc(/C=C/C(=O)c2cccnc2Nc2ccc(F)cc2)cc(OC)c1OC | 2.9 µM | 7.82 µM | 3.72 µM | 17.6 µM | 2.52 µM | 5.26 µM | 1690 nM | 3.59 µM | 2.84 µM | 7.2 µM | 2180 nM | 8.28 µM | 3.95 µM | 20 µM | 4.16 µM | 69.4 µM | 2640 nM | 5.53 µM | 1540 nM | 2.96 µM |
| Oc1ccc(Cl)cc1CNc1nc2ccccc2[nH]1 | 11.8 µM | 27.2 µM | 13.3 µM | 27 µM | 15.9 µM | 33 µM | 13700 nM | 28.8 µM | 13.8 µM | 35.8 µM | 141 nM | 18.2 µM | 9.75 µM | 23.3 µM | 12.9 µM | 27.5 µM | 16800 nM | 32.9 µM | 12100 nM | 24.7 µM |
| CCOC(=O)c1c(C)c(C)n2c1NC(=O)C2 |  | > 100 µM |  | > 100 µM |  | > 100 µM |  | > 100 µM |  | > 100 µM |  | > 100 µM |  | > 100 µM |  | > 100 µM |  | > 100 µM |  | > 100 µM |
| COc1ccc(CCNCCCC2c3ccccc3-c3ccccc32)cc1OC |  | 30 µM |  | 30.4 µM |  | 17.9 µM |  | 28.7 µM |  | 29.6 µM |  | 19.5 µM |  | 29.9 µM |  | 29.2 µM |  | 3.4 µM |  | 25.8 µM |
| C=C1c2c(Cl)ccc(O)c2C(O)=C2C(=O)[C@]3(O)C(O)=C(C(N)=O)C(=O)[C@@H](N(C)C)[C@@H]3[C@@H](O)[C@H]12 | 0.984 µM | 3.1 µM | 1.49 µM | 6.17 µM | 0.727 µM | 1.98 µM | 924 nM | 3.59 µM | 1.37 µM | > 50 µM | 663 nM | 4.09 µM | 1.34 µM | 31.4 µM | 1.19 µM | 5 µM | 1110 nM | 3.02 µM | 970 nM | 3.22 µM |
| O=C1CC(c2ccc(Cl)cc2)Oc2ccccc21 (stereo not given) |  | 56 µM |  | 31.5 µM |  | 37.8 µM |  | 93.6 µM |  | > 100 µM |  | 73 µM |  | 52.5 µM |  | > 100 µM |  | 89.1 µM |  | > 100 µM |
| [Cl][Cd][Cl] | 39.7 µM | 93.1 µM | 17.9 µM and 9.62 µM | 35.1 µM and 30.1 µM | 16.4 µM and 8.88 µM | 24.8 µM and 18.9 µM | 24800 nM | 75.9 µM | 77.7 µM | 162 µM | 14000 nM | 32.9 µM | 10.5 µM | 23.6 µM | 76.4 µM | 155 µM | > 46700 nM and 12900 nM | > 69.2 µM and 36.3 µM | 40300 nM and 48300 nM | 117 µM |
| OCCN1CCN(CC/C=C2\c3ccccc3Sc3ccc(Cl)cc32)CC1 | 4.07 µM and 2.62 µM | 14.5 µM and 7.04 µM | 2.73 µM and 2.81 µM | 6.02 µM and 7.34 µM | 2.75 µM and 2.26 µM | 5.98 µM and 4.9 µM | 1960 nM and 1650 nM | 3.89 µM and 3.13 µM | 5.06 µM and 6.56 µM | 17 µM and 17.9 µM | 2140 nM and 1840 nM | 4.29 µM and 7.94 µM | 2.75 µM and 2.96 µM | 11.8 µM and 13.4 µM | 1.79 µM and 2.17 µM | 5.07 µM and 5.33 µM | 1650 nM and 1590 nM | 3.24 µM and 3 µM | 2390 nM and 1980 nM | 4.85 µM and 4.18 µM |
| CC(C)CCN[C@@H]1CCc2cc(O)c(N3CC(=O)NS3(=O)=O)c(F)c2C1 | > 100 µM | > 100 µM | > 100 µM | > 100 µM | > 100 µM | > 100 µM | 52700 nM | > 100 µM | > 100 µM | > 100 µM | > 100000 nM | > 100 µM | > 100 µM | > 100 µM | > 100 µM | > 100 µM | > 100000 nM | > 100 µM | > 100000 nM | > 100 µM |
